Like-named read-outs stand apart in the source and are kept apart here.
Assays:
[1] = test system: acyl-coenzyme A: cholesterol acyltransferase; test: Inhibition of ACAT / intracellular cholesterol esterification in vitro (procedure of Ross et al.); assay type: cell-based
[2] = test system: plasma cholesterol; test: Plasma cholesterol in cholesterol-cholic acid fed rats; assay type: in vivo; conditions: Rattus norvegicus, oral gavage; for change in vivo at 100 mg/kg / change in vivo at 60 mg/kg / change in vivo at 40 mg/kg / change in vivo at 20 mg/kg: 96 h, four days, read-out: % Decrease in Plasma Cholesterol
Method: In addition, representative compounds were studied in vivo in cholesterol-cholic acid fed rats to determine the percent decrease of cholesterol in their plasma. This study involves rats which are, prior to testing, trained for one week to eat over a four hour time period each day. Upon initiation of the experiment, the rats diet is supplemented with 1.0 percent cholesterol and 0.25 percent cholic acid. The rats are dosed with the test compound by oral gavage just prior to adjust following the four hour feeding period. This is repeated for four days. On the fifth day, the rats are sacrificed and the total plasma cholesterol content is determined. The percent decrease in elevated plasma cholesterol levels is calculated in comparison with […].

SMILES | % Inhibition ([1]; 25 μM) [%] | IC50 ([1]; read-out: IC50) [nM] | other results
CCCCCCCN(Cc1ccc(OCCC(C)C)cc1)C(Nc1ccc(OC)cc1OC)=C1C(=O)OC(C)(C)OC1=O [Compound 6, 5-[[(2,4-Dimethoxyphenyl)amino][heptyl[[4-[(3-methylbutyl)oxy]phenyl]methyl]amino]-methylene]-2,2-dimethyl-1,3-dioxane-4,6-dione] | 99 | 1500 | change in vivo at 100 mg/kg [2]: -42%
CCCCCCCN(Cc1ccc(CCCCC)cc1)C(Nc1ccc(OC)cc1OC)=C1C(=O)OC(C)(C)OC1=O [Compound 14, 5-[[(2,4-Dimethoxyphenyl)amino][heptyl[(4-pentylphenyl)methyl]amino]methylene]-2,2-dimethyl-1,3-dioxane-4,6-dione] | 99 | 840 | change in vivo at 100 mg/kg [2]: -85%; ED50 ([2]; fifty percent reduction of plasma cholesterol): 16 mg/kg
CCCCCCCN(Cc1ccc(OCCC(C)C)cc1)C(Nc1ccc(N(C)C)cc1)=C1C(=O)OC(C)(C)OC1=O [Compound 22, 5-[[[4-(Dimethylamino)phenyl]amino][heptyl[[[4-(3-methylbutyl)oxy]phenyl]methyl]amino]-methylene]-2,2-dimethyl-1,3-dioxane4,6-dione] | 93 | 370 | change in vivo at 60 mg/kg [2]: -46%
CCCCOc1ccc(NC(=C2C(=O)OC(C)(C)OC2=O)N(Cc2ccc(C(C)(C)C)cc2)C(C)CCCC(C)C)cc1 (centres unmarked) [Compound 28, 5-[[(4-Butoxyphenyl)amino][[[4-(1,1-dimethylethyl)phenyl]methyl](1,5-dimethylhexyl)amino]-methylene]-2,2-dimethyl-1,3-dioxane-4,6-dione] | 98 | 690 | change in vivo at 40 mg/kg [2]: -15%
COc1ccc(NC(=C2C(=O)OC(C)(C)OC2=O)N(Cc2ccc(C(C)(C)C)cc2)C(C)CCCC(C)C)c(OC)c1 (centres unmarked) [Compound 29, 5-[[(2,4-Dimethoxyphenyl)amino][[[4-(1,1-dimethylethyl)phenyl]methyl](1,5-dimethylhexyl)-amino]methylene]-2,2-dimethyl-1,3-dioxane-4,6-dione] | 99 | 230 | change in vivo at 100 mg/kg [2]: -84%
CCCCCCCN(Cc1ccc(CC(C)C)cc1)C(Nc1ccc(OC)cc1OC)=C1C(=O)OC(C)(C)OC1=O [Compound 31, 5-[[(2,4,-Dimethoxyphenyl)amino][heptyl[[4-(2-methylpropyl)phenyl]methyl]amino]methylene]-2,2-dimethyl-1,3-dioxane-4,6-dione] | 97 | 910 | change in vivo at 60 mg/kg [2]: -71%
CCCCCC(C)N(Cc1ccc(CC(C)C)cc1)C(Nc1cccc(OCc2ccccc2)c1)=C1C(=O)OC(C)(C)OC1=O (centres unmarked) [Compound 34] | 98 | 1100 | change in vivo at 20 mg/kg [2]: -32%
CCCCCC(C)N(Cc1ccc(OCCC(C)C)cc1)C(Nc1ccc(OC)cc1OC)=C1C(=O)OC(C)(C)OC1=O (centres unmarked) [Compound 35] | 99 | 540 | change in vivo at 40 mg/kg [2]: -55%
CCCCCCC(CCCCCC)N(Cc1ccc(CC(C)C)cc1)C(Nc1ccc(N(C)C)cc1)=C1C(=O)OC(C)(C)OC1=O [Compound 36] | – | 44 | % Inhibition ([1]; 26 μM): 99%; change in vivo at 20 mg/kg [2]: -62%
CCCCCC(C)N(Cc1ccc(OCCC(C)C)cc1)C(Nc1ccc(N(C)C)cc1)=C1C(=O)OC(C)(C)OC1=O (centres unmarked) [Compound 38, 5-[[[4-(Dimethylamino)phenyl]amino][[[4-(3-methylbutoxy)phenyl]methyl](1-methylhexylhexyl)amino]methylene]-2,2-dimethyl-1,3-dioxane-4,6-dione] | 99 | 210 | change in vivo at 40 mg/kg [2]: -58%
COc1ccc(NC(=C2C(=O)OC(C)(C)OC2=O)N(Cc2ccc(CC(C)C)cc2)C(C)CCCC(C)C)c(OC)c1 (centres unmarked) [Compound 39, 5-[[(2,4-Dimethoxyphenyl)amino][(1,5-dimethylhexyl)[[4-(2-methylpropyl)phenyl]methyl]amino]methylene]-2,2-dimethyl-1,3-dioxane-4,6-dione] | 99 | 370 | change in vivo at 40 mg/kg [2]: -65%
CCCCc1ccc(CN(C(Nc2ccc(N(C)C)cc2)=C2C(=O)OC(C)(C)OC2=O)C(C)CCCC(C)(C)O)cc1 (centres unmarked) [Compound 45, 5-[[[(4-Butylphenyl)methyl](5-hydroxy-1,5-dimethylhexyl)amino][[4-(dimethylamino)phenyl]-amino]-methylene]-2,2-dimethyl-1,3-dioxane-4,6-dione] | 90 | 5200 | change in vivo at 20 mg/kg [2]: -29%
CCCCCc1ccc(CN(C(Nc2ccc(N(C)C)cc2C)=C2C(=O)OC(C)(C)OC2=O)C(C)CCCCC)cc1 (centres unmarked) [Compound 54, 5-[[[4-(Dimethylamino)-2-methylphenyl]amino][(1-methylhexyl)[(4-pentylphenyl)methyl]-amino]methylene]-2,2-dimethyl-1,3-dioxane-4,6-dione] | 98 | 680 | change in vivo at 20 mg/kg [2]: -77%
CCCCCCCN(Cc1ccc(CCC(C)C)cc1)C(Nc1ccc(OC)cc1OC)=C1C(=O)OC(C)(C)OC1=O [Compound 55, 5-[[(2,4-Dimethoxyphenyl)amino][heptyl[[4-(3-methylbutyl)phenyl]methyl]amino]methylene]2,2-dimethyl-1,3-dioxane-4,6-dione] | 97 | 3000 | change in vivo at 20 mg/kg [2]: -40%
COc1ccc(NC(=C2C(=O)OC(C)(C)OC2=O)N(Cc2ccc(CC(C)C)cc2)[C@@H](CO[Si](C)(C)C(C)(C)C)CC(C)C)c(OC)c1 [Compound 71] | 97 | – | IC50 [1]: 530 nM
COc1ccc(NC(=C2C(=O)OC(C)(C)OC2=O)N(Cc2ccc(CCC(C)C)cc2)C(CC(C)C)CC(C)C)c(OC)c1 [Compound 72, 5-[[(2,4-Dimethoxyphenyl)amino][[[4-(3-methylbutyl)phenyl]methyl][-3-methyl-1-(2-methylpropyl)butyl]amino]methylene]-2,2-dimethyl-1,3-dioxane-4,6-dione] | 98 | 1300 | –
CC(C)CCc1ccc(CN(C(Nc2ccc(N(C)C)cc2)=C2C(=O)OC(C)(C)OC2=O)C(CC(C)C)CC(C)C)cc1 [Compound 73, 5-[[[4-(Dimethylamino)phenyl]amino][[[4-(3-methylbutyl)phenyl]methyl][3-methyl-1-(2-methylpropyl)butyl]amino]methylene]-2,2-dimethyl-1,3-dioxane-4,6-dione] | 97 | 1300 | –
COc1ccc(NC(=C2C(=O)OC(C)(C)OC2=O)N(Cc2ccc(CC(C)C)cc2)[C@@H](CO)CC(C)C)c(OC)c1 [Compound 74, (R)-5-[[(2,4-Dimethoxyphenyl)amino][[1-(hydroxymethyl)-3-methylbutyl][[4-(2-methylpropyl)-phenyl]methyl]amino]methylene]-2,2-dimethyl-1,3-dioxane-4,6,-dione] | – | 290 | % Inhibition ([1]; concentration not given): 97%
CC1(C)OC(=O)C(=C(Nc2cccnc2)Nc2cc(C(C)(C)C)c(O)c(C(C)(C)C)c2)C(=O)O1 [Compound 82] | – | – | % Inhibition ([1]; 50 μM): 94%
CN(C(Nc1cc(C(C)(C)C)c(O)c(C(C)(C)C)c1)=C1C(=O)OC(C)(C)OC1=O)c1ccccn1 [Compound 83] | – | – | % Inhibition ([1]; 50 μM): 86%

— patent publication US5399697A, “N,N',N'-trisubstituted-5-bisaminomethylene-1,3-dioxane-4,6-dione inhibitors of acyl-CoA:cholesterol-acyl transferase” (American Home Products Corporation, priority 1993, dated 1995)
